The test system of one data set is bevacizumab. Description: Bio-layer interferometry binding of immobilized Fc-ligands to bevacizumab. The note with it: biotinylated peptide immobilized at 100 nM on SAX biosensors. The method, then: (§1) Binding kinetic measurements were performed on the Octet RED96 system (ForteBio, CA) using single-use high-precision streptavidin biosensors (SAX). Assay buffer was defined as 1×PBS comprising 0.05% Tween-20 (PBST). Biotinylated peptides FcL-1 and FcL-2 were immobilized at 100 nM. Non-specific interactions were minimized by including a blocking step using SuperBlock prior to each baseline response. […] A double-referencing experiment was used to assess the binding interactions of Fc-noggin to both peptides. Peptides were immobilized in sample sensors while reference sensors were dipped in assay buffer. For association, the sample and reference sensors were dipped into Fc-noggin. All experiments included one biosensor dipped in assay buffer during association for background normalization.
(§2) Affinity interactions of the modified peptide ligands to different antibodies were evaluated via bio-layer interferometry. […] Dissociation constants between the binding pairs were determined using the Octet Data Analysis Software. […] A heterogeneous 2:1 ligand binding model was used for the evaluation of the equilibrium dissociation constants of the chosen peptide ligands to anti-sFRP2 or Fc-Noggin.
A general note: BLI is a label-free optical method that tracks binding on a fibre tip over time.

A further data set has as its system panitumumab. Description: Bio-layer interferometry binding of immobilized Fc-ligands to panitumumab. Particulars: biotinylated peptide immobilized at 100 nM on SAX biosensors. The method, then:
as §1, §2

Another data set relates to anti-sFRP2. Nature of the data set: Bio-layer interferometry binding of immobilized Fc-ligands to anti-sFRP2. Particulars: biotinylated peptide immobilized at 100 nM on SAX biosensors. The method, then:
as §1, §2

For a further data set, the target named is T1, Fc-Noggin (Mus musculus, UniProt P97466).
T1 construct: Fc (immunoglobulin Fc region); purchased R&D systems
Nature of the data set: Bio-layer interferometry binding of immobilized Fc-ligands to Fc-Noggin. Particulars: biotinylated peptide immobilized at 100 nM on SAX biosensors. The method, then: as §1, §2

The nature of data set [1]: In vitro controlled release of proteins from HAKT-oxime gels, quantified by ELISA. It is filed as physicochemical. Particulars: for cumulative release: after 2 days. For orientation: In an ELISA, binding on a coated surface is turned into a signal by an enzyme label.
Experimental: HAKT and HAKT-FcL-1 were dissolved in PBS to yield a final HA content of 12.5 mg/mL with 0 or 100 molar excesses of peptide to protein and mixed with PEGOA4 at 80 mol %. […] Release media was defined as 1×PBS comprising 0.1 wt % bovine serum albumin and Roche cOmplete™ Protease Inhibitor Cocktail (1 tablet/ 10 mL, Roche, Switzerland). Protein release was evaluated by incubating HAKT-oxime gels with 400 μL of release media on an orbital shaker at 37° C. Supernatants were collected and replaced with fresh release media after 2 h, 6 h, 1 d, 2 d, 3 d, 5 d, and 7 d. HAKT-oxime hydrogels were digested after the last time point using 500 IU/mL hyaluronidase in 400 μL of PBS. Fc-Noggin concentrations were evaluated using a mouse Noggin ELISA (RayBiotech).
Subsequently, the wells were washed with 200 μL TPBS (1× PBS with 0.05% Tween 20) four times and blotted dry on paper towels. Standard and analyte samples were added to each well (100 μL) and incubated for 2.5 h at room temperature on an orbital shaker. The wells were then washed as previously described and blotted dry. […] 100 μL of anti-Fc antibody diluted at appropriate concentrations was added to each well and incubated for 1.5 h at room temperature. A solution of 3,3′,5,5′-Tetramethylbenzidine (TMB) was added (100 ul) to each well. […] Then, a stop solution comprising 2N H2SO4 (50 μL) was added to each well and the absorbance was measured at 450 nm. Protein concentration was determined using the linear range in the standard curve. Protein samples were diluted to fit within the linear range.
In the next data set the target is hlgG1 (Homo sapiens, UniProt P01857). Particulars: interacting with hlgG1; Reese et al., 2020; cited from earlier work.

pKd: −log10 of the molar value.

T1 sequence (P97466 with tags, fused parts or gaps): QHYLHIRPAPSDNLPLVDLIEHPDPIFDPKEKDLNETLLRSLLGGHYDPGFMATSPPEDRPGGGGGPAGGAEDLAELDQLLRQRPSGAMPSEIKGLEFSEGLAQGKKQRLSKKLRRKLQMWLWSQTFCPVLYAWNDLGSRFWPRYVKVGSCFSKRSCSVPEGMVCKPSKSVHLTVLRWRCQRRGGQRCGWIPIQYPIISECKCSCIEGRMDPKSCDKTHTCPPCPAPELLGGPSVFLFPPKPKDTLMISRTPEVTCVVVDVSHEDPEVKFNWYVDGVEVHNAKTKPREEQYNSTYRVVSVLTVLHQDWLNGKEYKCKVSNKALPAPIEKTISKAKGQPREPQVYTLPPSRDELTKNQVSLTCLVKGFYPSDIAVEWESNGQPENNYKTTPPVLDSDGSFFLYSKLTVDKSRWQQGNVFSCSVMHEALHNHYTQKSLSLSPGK
Chain of hlgG1 (P01857 1-328 limits assumed): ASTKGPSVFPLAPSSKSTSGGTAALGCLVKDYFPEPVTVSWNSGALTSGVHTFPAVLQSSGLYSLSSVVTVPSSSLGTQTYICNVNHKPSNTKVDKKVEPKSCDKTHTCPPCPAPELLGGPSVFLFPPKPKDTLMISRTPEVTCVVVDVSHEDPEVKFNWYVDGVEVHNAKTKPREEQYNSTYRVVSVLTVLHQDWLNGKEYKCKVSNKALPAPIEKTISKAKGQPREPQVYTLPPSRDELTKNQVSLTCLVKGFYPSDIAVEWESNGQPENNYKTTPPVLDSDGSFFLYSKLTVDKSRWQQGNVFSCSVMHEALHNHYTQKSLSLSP

Take (CFHH)2KGAKSKG [FcL2]: the binding to bevacizumab result in the data set with bevacizumab is recorded as “demonstrated binding only to anti-sFRP2”. Besides, the binding to panitumumab entry in the data set with panitumumab is “demonstrated binding only to anti-sFRP2”. The “binding to anti-sFRP2” value in the data set on anti-sFRP2 is recorded as “demonstrated binding only to anti-sFRP2”. Further, the “binding to Fc-Noggin” value at Fc-Noggin is listed as “demonstrated binding only to anti-sFRP2”.

As for “bevacizumab: antibody against VEGF; Research Grade Bevacizumab Biosimilar”, the “controlled release from HAKT-gel” value in data set [1] (FcL-1 at 100-fold molar excess vs no peptide, 37° C., 7 days) was “confirmed controlled release”. Besides, the figures for the cumulative release in data set [1] (from HAKT-FcL1-oxime) and in data set [1] (from HAKT-oxime (no peptide)) were 60% and “approximately 100%”, respectively.

Turning to `CC(C)[C@H](NC(=O)[C@H](Cc1c[nH]c2ccccc12)NC(=O)CNC(=O)[C@H](CCCNC(=N)N)NC(=O)[C@H](Cc1c[nH]c2ccccc12)NC(=O)[C@@H](N)Cc1c[nH]cn1)C(=O)NCC(=O)N[C@@H](C)C(=O)N[C@@H](CCCCNC(=O)CCCC[C@@H]1SC[C@@H]2NC(=O)N[C@@H]21)C(=O)N[C@@H](CO)C(=O)N[C@@H](CCCCN)C(=O)NCC(=O)O` [FcL1], in the data set with bevacizumab, the binding to bevacizumab entry was “shown to bind”. The binding to panitumumab entry in the data set on panitumumab is recorded as “shown to bind”. In the data set on anti-sFRP2, the “binding to anti-sFRP2” value is listed as “shown to bind”. For the same compound, the “binding to Fc-Noggin” value at Fc-Noggin is reported as “shown to bind”.

With HWRWGV, the pKd at hlgG1 is 4.85.

For orientation: pKd means the Kd on a negative log10 scale, so that one unit is a factor of ten.

The values above are taken from US20230364025A1, “PROTEIN-RELEASE SYSTEM FOR SUSTAINED RELEASE OF PROTEINS” (THE GOVERNING COUNCIL OF THE UNIVERSITY OF TORONTO, priority 2022, published 2023).
